Measured values: PMC6934975, “Natural Alpha-Glucosidase Inhibitors Rapid Fishing from Cyperus Rotundus Using Immobilized Enzyme Affinity Screening Combined with UHPLC-QTOF MS” (Iranian Journal of Pharmaceutical Research : IJPR, 2019)
Like-named read-outs stand apart in the source and are kept apart here.

What was measured:
[1] = biological target: T1, α-Glucosidase (E.C. 3.2.1.20) from Saccharomyces cerevisiae (Saccharomyces cerevisiae, UniProt P53341); experiment: Kinetic analysis of AGH inhibition (Lineweaver-Burk plot); format: biochemical
T1 construct: purchased Sigma-Aldrich
T1 sequence (P53341 whole entry): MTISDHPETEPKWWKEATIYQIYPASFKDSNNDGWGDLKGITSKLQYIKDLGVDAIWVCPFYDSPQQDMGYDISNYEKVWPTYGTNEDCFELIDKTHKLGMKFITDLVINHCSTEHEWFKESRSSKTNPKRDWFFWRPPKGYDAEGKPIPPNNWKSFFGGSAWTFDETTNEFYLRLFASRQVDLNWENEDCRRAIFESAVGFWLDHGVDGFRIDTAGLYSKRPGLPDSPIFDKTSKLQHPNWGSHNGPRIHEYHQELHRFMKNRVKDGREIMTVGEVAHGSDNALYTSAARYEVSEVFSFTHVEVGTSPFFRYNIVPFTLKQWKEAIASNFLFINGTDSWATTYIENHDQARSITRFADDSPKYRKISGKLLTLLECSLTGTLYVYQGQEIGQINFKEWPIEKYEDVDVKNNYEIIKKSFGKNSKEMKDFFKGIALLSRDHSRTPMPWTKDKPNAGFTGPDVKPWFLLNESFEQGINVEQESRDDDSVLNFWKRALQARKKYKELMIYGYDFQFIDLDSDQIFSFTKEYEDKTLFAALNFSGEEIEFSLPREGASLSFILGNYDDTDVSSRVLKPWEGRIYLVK
Method: (§1) where AS, ASB, AC and ACB are the absorbance of sample, sample blank, control and control blank, respectively. The measurement was performed in triplicates. For kinetic analysis of AGH inhibition, a certain concentration of 0.6 U/mL AGH and different contents of sample compounds were incubated with a series of concentrations of substrate. The inhibitory kinetics of the investigated compounds was analyzed using the Lineweaver-Burk plot, double-reciprocal plot of the substrate concentration and velocity.

α-glucosidase = system: α-glucosidase; parameters: method as in PMID 24044731; conditions: cited from earlier work
[2] = biological target: T1, α-Glucosidase (E.C. 3.2.1.20) from Saccharomyces cerevisiae; experiment: α-Glucosidase inhibitory activity assay in vitro (PNPG substrate, absorbance at 405 nm); format: biochemical
From the text: Agilent 1290 Infinity LC-6520 Accurate-Mass QTOF-MS (Agilent Technologies, PaloAlto, CA, USA); Bruker DRX-400 (400MHz for ^1H and 100MHz for ^13C) spectrometer (Bruker, Rheinstetten, Germany); α-Glucosidase (E.C. 3.2.1.20) from Saccharomyces cerevisiae, p-nitrophenyl a-D-glucopyranoside (PNPG) and glutathione (GSH) were purchased from Sigma-Aldrich (St Louis, MO, USA). CNBr-activated Sepharose^TM 4B was purchased from Phamacia Biotech AB (Uppsala, Sweden). Distilled water was purified by a Milli-Q water purification apparatus (Millipore, Bedford, MA). All other reagents were of analytical grade.
Each of the dried ground powder (3 g) was extracted in 30 mL of 80% aqueous methanol by ultrasonic extraction for 60 min at room temperature. After centrifugation at 5000 rpm for 5 min, the combined extract was evaporated under reduced pressure to dryness. To each herb extract, DMSO was added to get 5 mg/mL solution, respectively.
The α-glucosidase inhibitory activity was determined spectrophotometrically on 96-well microplate reader. In brief, to a total of 310 μL of reaction mixture containing 265 μL of 67 mM phosphate buffer (pH 6.8), 10 μL of 3 mM glutathione, 25 μL of 10 mM p-nitrophenyl-α-D-glucopyranoside and 10 μL of investigated compounds in the wells was added 10 μL of 0.3 U/mL α-glucosidase and mixed. All the reagents used in this assay were dissolved in the same phosphate buffer (67 mM, pH 6.8). After incubation for 10 min at 37 °C, the reaction was stopped by adding […] of 0.1 M Na2CO3 solution. Then the absorbance of sample (AS) at 405 nm was recorded (SunriseTM microplate absorbance reader, Tecan, Austria). The control was the same mixture except for the investigated sample replaced by the phosphate buffer. The sample blank and control blank were the same mixtures as sample and control, respectively, except α-glucosidase was instead with phosphate buffer, respectively.
The α-glucosidase inhibition activity (%) of test sample could be calculated as
Inhibition activity (%) = […]
as §1

[3] = biological target: T2, immobilized α-glucosidase (Saccharomyces cerevisiae, UniProt P53341); experiment: AGH inhibitors screening by immobilized AGH affinity fishing with UHPLC-QTOF-MS; format: binding; conditions: C. rotundus extract; parallel control with blank sepharose supports
T2 construct: purchased Sigma-Aldrich
T2 sequence (P53341 whole entry): as above
Method: a-Glucosidase (0.20 mg) was dissolved in coupling buffer (0.1 M NaHCO3 and 0.5 M NaCl at pH 8.3) at a concentration of 2.0 mg protein/mL. The protein solution was mixed with CNBr-activated Sepharose^TM 4B gel at room temperature in a ratio of […] protein solution to 5 mg Sepharose^TM powder, which would swell to about […] of wet gel. The gel slurry was rotated at room temperature for 1 h to ensure the enzyme bound to the beads. After protein coupling, the resident reactive sites on the gel were blocked by reacting with 0.01 M Tris-HCl buffer at pH 8.0 for 1 h at room temperature. […] Control supports were prepared in the same manner but with no AGH being added during the immobilization step.
200 mg ground C. rotundus powder was extracted in 20 mL of 80% aqueous methanol by ultrasonic extraction for 30 min. The extract was filtered and freeze-dried, then redissolved in 10 mL affinity buffer (67 mM KH2PO4 (containing 5% methanol) at pH 6.8) and filtered through a 0.45 μm membrane as the tested extract sample.
C. rotundus extracts (400 mL) was mixed with […] immobilized AGH gel and gently stirred at 37 °C for 20 min. After incubation with the extracts, the gel were washed with 400 mL affinity buffer (67 mM KH2PO4 (containing 5% methanol) at pH 6.8) four times to remove any unbound components and then treated with […] desorbed solution (50% methanol aqueous solution at pH 3.3) to release the captured potential inhibitors of AGH. The released components were collected and concentrated to 10 mL under N2 atmosphere at 40 °C, then applied to UPLC-QTOF-MS for peak identification. Elution from the control supports was collected and analyzed in the same manner.
UHPLC-MS was performed on an Agilent 1290 Infinity LC-6520 Accurate-Mass QTOF-MS (Agilent Corporation, CA, USA). Analytes eluted from the AGH coupling supports and control supports were separated on a poroshell 120 EC-C18 column (3.0 × 50 mm, 2.7 µm , Agilent Corporation, MA, USA). The solvent system consisted of solvent A […] and solvent B (0.5% formic acid in water, v/v). The solvent A content of the mobile phase was gradient increased from 5% to 100% linearly in 20 min.
The flow rate was set at 0.4 mL/min. Mass analysis was performed in negative ESI ion mode. The operating parameters were as follows: drying gas (N2) flow rate, 8 L/min; drying gas temperature, 325 °C; nebulizer, 30 psig; capillary, 3500 V; skimmer, 65 V; fragmentor voltage, 100 V. The mass range was set at m/z 100–2000. The system was operated under Agilent MassHunter workstation acquisition software, version B.02.01 (Agilent Corporation, MA, USA).
The extract of C. rotundus was used as the real biological sample to carry out the affinity screening procedure, just as shown in Scheme 1. Firstly, α-glucosidase was immobilized on CNBr-activated sepharose beads, while blank supports were set as control. Secondly, immobilized α-glucosidase was incubated with 300 µL of C.
rotundus extracts to launch the affinity capture procedure. The highly-affinity components in C. rotundus could be specifically captured by the enzyme and fished out from the complex matrix. Thirdly, to characterize the captured compounds, the binders were released from immobilized α-glucosidase and subsequently separated and analyzed by UHPLC-QTOF MS. It was worth mentioning that not all the molecules retained on immobilized enzyme were of highly-affinity. Some of them might be non-specifically absorbed on the blank sepharose support. To eliminate this false positive, a parallel control was carried out throughout the whole screening procedure. By subtracting the signal of false positive, the highly-affinity ingredients could be recognized correctly, and these ingredients might be potent natural AGHI in C. rotundus.

Row | Compound | Ki [1] [µM] | alpha-glucosidase inhibitory kinetic mode ([1]; Lineweaver-Burk plots) | α-glucosidase inhibitors in C. rotundus (reported) (α-glucosidase) | IC50 [2] [µM] | Affinity capture result on immobilized α-glucosidase after subtracting the blank support signal [3] | Ki ([1]; Lineweaver-Burk plots, Table 2, read-out: alpha-glucosidase inhibitory Ki) [µM] | IC50 ([2]; Table 2, read-out: alpha-glucosidase inhibitory IC50) [µM] | α-glucosidase inhibitory activity in words [2]
1 | Oc1cc(O)cc(C2c3c(/C=C/c4ccc(O)c(O)c4)cc(O)cc3OC2c2ccc(O)c(O)c2)c1 (stereo not drawn) [Scirpusins B (4), Scirpusins B] | 95.4 | Noncompetitive | natural α-glucosidase inhibitors | 13.3 ± 1.66 | highly-affinity binders | – | – | –
2 | Oc1ccc(/C=C/c2cc(O)cc3c2C(c2cc(O)cc(O)c2)C(c2ccc(O)c(O)c2)O3)cc1 (stereo not drawn) [Scirpusins A (5), Scirpusins A] | – | Noncompetitive | natural α-glucosidase inhibitors | – | highly-affinity binders | 136 | 21.4 ± 1.4 | –
3 | Oc1ccc(/C=C/c2c3c(cc4c2[C@H](c2cc(O)cc(O)c2)[C@@H](c2ccc(O)c(O)c2)O4)O[C@H](c2ccc(O)c(O)c2)[C@H]3c2cc(O)cc(O)c2)cc1 [Cyperusphenol A (1), (E)-cyperusphenol A] | 11.2 | Noncompetitive | – | 1.43 ± 0.11 | highly-affinity binders | – | – | potent natural AGHIs
4 | CC1=C2C(O)C3CC(O)C(C)C2(CC1O)C3(C)C (stereo not drawn) [sugetriol] | – | – | – | – | absorbed only on the support matrix | – | – | –
5 | Oc1cc2c3c(c1)C1c4c(cc(O)cc4C4c5c(cc(O)cc5C3C(c3ccc(O)c(O)c3)O2)OC4c2ccc(O)c(O)c2)OC1c1ccc(O)c(O)c1 (stereo not drawn) [Cyperusphenol D (3), Cyperusphenol D] | 8.63 | Noncompetitive | – | 1.18 ± 0.11 | highly-affinity binders | – | – | potent natural AGHIs
6 | C[C@H]1O[C@H](O[C@H]2[C@H](O)[C@@H](O)[C@@H](O[C@H]3[C@H](O)[C@@H](O)C(O)O[C@@H]3CO)O[C@@H]2CO)[C@H](O)[C@@H](O)[C@@H]1N[C@H]1C=C(CO)[C@@H](O)[C@H](O)[C@H]1O (stereo partly drawn) [Acarbose (reference), Acarbose, reference compound] | – | competitive | – | – | – | – | – | –
7 | Oc1ccc(/C=C/c2c3c(cc4c2[C@@H](c2cc(O)cc(O)c2)[C@H](c2ccc(O)c(O)c2)O4)O[C@H](c2ccc(O)c(O)c2)[C@H]3c2cc(O)cc(O)c2)cc1 [Mesocyperusphenol A (2), mesocyperusphenol A] | 10.7 | Noncompetitive | – | 1.44 ± 0.17 | highly-affinity binders | – | – | potent natural AGHIs
